Experimental findings from paper PMC7180572, “5-Alkylamino-N-phenylpyrazine-2-carboxamides: Design, Preparation, and Antimycobacterial Evaluation” (Molecules, 2020) are described below.

Assay [1] has as its system Staphylococcus aureus spp.aureus ATCC 29213, CCM 4223. Nature of the assay: Antibacterial microdilution broth method (EUCAST). The conditions noted are these: 48 h, read-out: MIC against Staphylococcus aureus. The class given is cell-based. In general terms: In broth dilution the organism is exposed to a series of concentrations in liquid medium.
The test system of assay [2] is Staphylococcus aureus methicillin resistant ATCC 43300, CCM 4750. As to the kind of experiment: microbe, parasite or virus in culture. The class given is cell-based. The conditions noted are these: 48 h, read-out: MIC against Staphylococcus aureus methicillin resistant.
Assay [3] has as its system Staphylococcus epidermidis ATCC 12228, CCM 4418. Nature of the assay: Antibacterial microdilution broth method (EUCAST). It counts as cell-based. The conditions noted are these: 48 h, read-out: MIC against Staphylococcus epidermidis.
In assay [4] the test system is Enterococcus faecalis ATCC 29212, CCM 4224. As to the kind of experiment: Antibacterial microdilution broth method (EUCAST). The class given is cell-based. The conditions noted are these: 48 h, read-out: MIC against Enterococcus faecalis.
For assay [5], the system named is Escherichia coli ATCC 25922, CCM 3954. As to the kind of experiment: Antibacterial microdilution broth method (EUCAST). It counts as cell-based. The conditions noted are these: 48 h, read-out: MIC against Escherichia coli.
The test system of assay [6] is Pseudomonas aeruginosa ATCC 27853, CCM 3955. As to the kind of experiment: Antibacterial microdilution broth method (EUCAST). The class given is cell-based. The conditions noted are these: 48 h, read-out: MIC against Pseudomonas aeruginosa.
The test system of a further assay is Serratia marcescens. As to the kind of experiment: Antibacterial microdilution broth method (EUCAST). It counts as cell-based. Particulars: 48 h, standards, read-out: MIC against Serratia marcescens.
In assay [7] the test system is Klebsiella pneumoniae ATCC 10031, CCM 4415. As to the kind of experiment: Antibacterial microdilution broth method (EUCAST). Particulars: Klebsiella pneumoniae, ATCC10031|CCM4415, 48 h, read-out: MIC against Klebsiella pneumoniae.

≈ marks a conversion by molar mass, not a printed value.

Consider `CNC(C)C1CCC(N)C(OC2C(N)CC(N)C(OC3OCC(C)(O)C(NC)C3O)C2O)O1` (centres unmarked) [gentamicin, reference compound], for which the MIC in assay [1] was 1 µg/mL (≈ 2.09 µM); in assay [2], 16 to 32 µg/mL (≈ 33.5 to 67 µM); in assay [3], more than 8 µg/mL; in assay [4], 8 µg/mL (≈ 16.8 µM); in assay [5] it was 1 to 2 µg/mL (≈ 2.09 to 4.19 µM); in assay [6] it was 0.5 µg/mL (≈ 1.05 µM). The MIC in the assay with Serratia marcescens was 2 µg/mL (≈ 4.19 µM); in assay [7] it was more than 8 µg/mL.
